From patent US10894067B2, “Genome stability enhancer” (Yamada Bee Company, Inc., priority 2017, dated 2021)

System: H2AX expression in MEF (mouse embryo fibroblast) cells
Assay: Western analysis of H2AX expression in MEF cells (Test Examples 1-3)
Format: cell-based
Protocol: MEF (mouse embryo fibroblast) cells were cultured at 37° C. in 5% CO2 by the 3T3 method in a 10% FCS (fetal calf serum)-containing DMEM medium to which a 25 μg/ml enzymatically treated RJ or non-treated RJ was added. The cells that were cultured for 0, 3, 6, 12, and 24 hours were harvested, and Western analysis was performed using a H2AX antibody (Bethyl Laboratories, Inc.) and a β-actin antibody (AC-74, Sigma-Aldrich Co. LLC.).
In the same manner as in Test Example 1, the effects of melinjo and trans-resveratrol on H2AX expression were analyzed. In this test example, a 0.26, 0.52, 1.0, or 2.1 w/v % melinjo seed extract or trans-resveratrol was added to a medium, and cells were cultured for 1 hour and harvested.

SMILES: Oc1ccc(/C=C/c2cc(O)cc(O)c2)cc1 [trans-resveratrol]
- Induced transient H2AX expression (Test Example 2, 0.26, 0.52, 1.0 or 2.1 w/v % in medium, cultured 1 hour, FIG. 2): Induced transient H2AX expression was observed
- Induced transient H2AX expression (Test Example 3, 2.5 μM (0.52 μg/ml) trans-resveratrol, 0.52 μg/ml melinjo seed extract, 2.5 μM gnetin C, 0-24 hours, FIG. 3): Induced transient H2AX expression was observed
